Biological target: T1, human LPA1 (Homo sapiens, UniProt Q92633)
T1 construct: expressed in transfected cells; host or cells: Chinese hamster ovary (CHO) cells
Assay: LPA1 functional antagonist assay (calcium flux)
Assay type: cell-based
Conditions: CHO cells overexpressing human LPA1; calcium flux induced by 10 nM LPA; read-out: hLPA1 IC50
Method: The effectiveness of compounds of the present invention as LPA1 inhibitors can be determined in an LPA1 functional antagonist assay as follows:
The cells were then equilibrated to room temperature for 30 minutes before the assay. […] IC50 values were determined by fitting data to a 4-parameter logistic equation (GraphPad Prism, San Diego Calif.).

T1 sequence (Q92633 whole entry): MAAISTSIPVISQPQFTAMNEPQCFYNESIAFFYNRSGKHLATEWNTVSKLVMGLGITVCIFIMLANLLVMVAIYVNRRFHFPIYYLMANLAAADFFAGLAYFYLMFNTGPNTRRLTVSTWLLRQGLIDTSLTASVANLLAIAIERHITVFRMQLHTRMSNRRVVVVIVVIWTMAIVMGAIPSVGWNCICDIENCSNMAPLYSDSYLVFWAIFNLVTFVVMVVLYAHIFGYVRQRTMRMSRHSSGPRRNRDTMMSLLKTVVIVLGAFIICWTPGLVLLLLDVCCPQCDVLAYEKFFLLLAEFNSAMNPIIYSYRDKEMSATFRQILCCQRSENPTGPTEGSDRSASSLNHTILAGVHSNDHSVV

SMILES | IC50
CCCCOC(=O)N(C)Cc1c(-c2ccc(O[C@H]3CCC[C@H](C(=O)O)C3)c(C)n2)nnn1C [Example 36, (1S,3S)-3-((6-(5-(((butoxycarbonyl)(methyl)amino)methyl)-1-methyl-1H-1,2,3-triazol-4-yl)-2-methyl-pyridin-3-yl)oxy)cyclohexane carboxylic acid] | 19 nM
Cc1nc(-c2nnn(C)c2CNC(=O)OCCC(C)(C)C)ccc1O[C@H]1CCC[C@H](C(=O)O)C1 [Example 37, (1S,3S)-3-((6-(5-((((3,3-dimethylbutoxy)carbonyl)amino)methyl)-1-methyl-1H-1,2,3-triazol-4-yl)-2-methylpyridin-3-yl)oxy)cyclohexanecarboxylic acid] | 12 nM
Cc1nc(-c2nnn(C)c2CNC(=O)OCC2CC(C)(C)C2)ccc1O[C@H]1CCC[C@H](C(=O)O)C1 [Example 38, (1S,3S)-3-((6-(5-(((((3,3-dimethylcyclobutyl)methoxy)carbonyl)amino)methyl)-1-methyl-1H-1,2,3-triazol-4-yl)-2-methylpyridin-3-yl)oxy)cyclohexanecarboxylic acid] | 19 nM
CCCCOC(=O)NCc1c(-c2ccc(O[C@H]3CCC[C@H](C(=O)O)C3)c(CC)n2)nnn1C [Example 41, (1S,3S)-3-((6-(5-(((butoxycarbonyl)amino)methyl)-1-methyl-1H-1,2,3-triazol-4-yl)-2-ethylpyridin-3-yl)oxy)cyclohexane-1-carboxylic acid] | 8 nM
CCCOC(=O)NCc1c(-c2ccc(O[C@H]3CCC[C@H](C(=O)O)C3)c(CC)n2)nnn1C [Example 42, (1S,3S)-3-((2-ethyl-6-(1-methyl-5-(((propoxycarbonyl)amino)methyl)-1H-1,2,3-triazol-4-yl)pyridin-3-yl)oxy)cyclohexane-1-carboxylic acid] | 788 nM
CCc1nc(-c2nnn(C)c2CNC(=O)OCc2ccccc2)ccc1O[C@H]1CCC[C@H](C(=O)O)C1 [Example 43, (1S,3S)-3-((6-(5-((((benzyloxy)carbonyl)amino)methyl)-1-methyl-1H-1,2,3-triazol-4-yl)-2-ethylpyridin-3-yl)oxy)cyclohexne-1-carboxylic acid] | 8 nM
CCc1nc(-c2nnn(C)c2CNC(=O)OC2CCCC2)ccc1O[C@H]1CCC[C@H](C(=O)O)C1 [Example 44, (1S,3S)-3-((6-(5-((((cyclopentyloxy)carbonyl)amino)methyl)-1-methyl-1H-1,2,3-triazol-4-yl)-2-ethylpyridin-3-yl)oxy)cyclo-hexane-1-carboxylic acid] | 37 nM
CCc1nc(-c2nnn(C)c2CNC(=O)OCC(C)(C)C)ccc1O[C@H]1CCC[C@H](C(=O)O)C1 [Example 45, (1S,3S)-3-((2-ethyl-6-(1-methyl-5-((((neopentyloxy)carbonyl)amino)methyl)-1H-1,2,3-triazol-4-yl)pyridin-3-yl)oxy)cyclohexane-1-carboxylic acid] | 94 nM
CCc1nc(-c2nnn(C)c2CNC(=O)OCC(C)C)ccc1O[C@H]1CCC[C@H](C(=O)O)C1 [Example 46, (1S,3S)-3-((2-ethyl-6-(5-(((isobutoxycarbonyl)amino)methyl)-1-methyl-1H-1,2,3-triazol-4-yl)pyridin-3-yl)oxy)cyclohexane-1-carboxylic acid] | 120 nM
Cc1nc(-c2nnn(C)c2CNC(=O)OCC2(F)CC2)ccc1O[C@H]1CCC[C@H](C(=O)O)C1 [Example 49, (1S,3S)-3-((6-(5-(((((1-fluorocyclopropyl)methoxy)carbonyl)amino)methyl)-1-methyl-1H-1,2,3-triazol-4-yl)-2-methylpyridin-3-yl)oxy)cyclohexane-1-carboxylic acid] | 602 nM
CCCC1(COC(=O)NCc2c(-c3ccc(O[C@H]4CCC[C@H](C(=O)O)C4)cn3)nnn2C)CC1 [Example 50, (1S,3S)-3-((6-(1-methyl-5-(((((1-propylcyclopropyl)methoxy)carbonyl)amino)methyl)-1H-1,2,3-triazol-4-yl)pyridin-3-yl)oxy)cyclohexane-1-carboxylic acid] | 28 nM
CCC1(COC(=O)NCc2c(-c3ccc(O[C@H]4CCC[C@H](C(=O)O)C4)cn3)nnn2C)CC1 [Example 51, (1S,3S)-3-((6-(5-(((((1-ethylcyclopropyl)methoxy)carbonyl)amino)methyl)-1-methyl-1H-1,2,3-triazol-4-yl)pyridin-3-yl)oxy)cyclohexane-1-carboxylic acid] | 62 nM
Cn1nnc(-c2ccc(O[C@H]3CCC[C@H](C(=O)O)C3)cn2)c1CNC(=O)OCC1(C)CC1 [Example 52, (1S,3S)-3-((6-(1-methyl-5-(((((1-methylcyclopropyl)methoxy)carbonyl)amino)methyl)-1H-1,2,3-triazol-4-yl)pyridin-3-yl)oxy)cyclohexane-1-carboxylic acid] | 81 nM
COCCCOC(=O)NCc1c(-c2ccc(O[C@H]3CCC[C@H](C(=O)O)C3)c(C)n2)nnn1C [Example 53, (1S,3S)-3-((6-(5-((((3-methoxypropoxy)carbonyl)amino)methyl)-1-methyl-1H-1,2,3-triazol-4-yl)-2-methylpyridin-3-yl)oxy)cyclohexane-1-carboxylic acid] | 342 nM
CCCC1(COC(=O)NCc2c(-c3ccc(O[C@H]4CCC[C@H](C(=O)O)C4)c(C)n3)nnn2C)CCC1 [Example 54] | 58 nM
Cc1nc(-c2nnn(C)c2CNC(=O)OCCCF)ccc1O[C@H]1CCC[C@H](C(=O)O)C1 [Example 55, (1S,3S)-3-((6-(5-((((3-fluoropropoxy)carbonyl)amino)methyl)-1-methyl-1H-1,2,3-triazol-4-yl)-2-methylpyridin-3-yl)oxy)cyclohexane-1-carboxylic acid] | 411 nM
CCOCCOC(=O)NCc1c(-c2ccc(O[C@H]3CCC[C@H](C(=O)O)C3)c(C)n2)nnn1C [Example 56, (1S,3S)-3-((6-(5-((((2-ethoxyethoxy)carbonyl)amino)methyl)-1-methyl-1H-1,2,3-triazol-4-yl)-2-methyl-pyridin-3-yl)oxy)cyclohexane-1-carboxylic acid] | 885 nM
CCC1(COC(=O)NCc2c(-c3ccc(O[C@H]4CCC[C@H](C(=O)O)C4)c(C)n3)nnn2C)CCC1 [Example 57, (1S,3S)-3-((6-(5-(((((1-ethylcyclobutyl)methoxy)carbonyl)amino)methyl)-1-methyl-1H-1,2,3-triazol-4-yl)-2-methylpyridin-3-yl)oxy)cyclohexane-1-carboxylic acid] | 68 nM
CCC1(COC(=O)NCc2c(-c3ccc(O[C@H]4CCC[C@H](C(=O)O)C4)c(C)n3)nnn2C)CC1 [Example 58, (1S,3S)-3-((6-(5-(((((1-ethylcyclopropyl)methoxy)carbonyl)amino)methyl)-1-methyl-1H-1,2,3-triazol-4-yl)-2-methylpyridin-3-yl)oxy)cyclohexane-1-carboxylic acid] | 38 nM
Cc1nc(-c2nnn(C)c2CNC(=O)OCC2(C)CC2)ccc1O[C@H]1CCC[C@H](C(=O)O)C1 [Example 59, (1S,3S)-3-((2-methyl-6-(1-methyl-5-(((((1-methylcyclopropyl)methoxy)carbonyl)amino)methyl)-1H-1,2,3-triazol-4-yl)pyridin-3-yl)oxy)cyclohexane-1-carboxylic acid] | 48 nM
CCCC1(COC(=O)NCc2c(-c3ccc(O[C@H]4CCC[C@H](C(=O)O)C4)c(C)n3)nnn2C)CC1 [Example 60, (1S,3S)-3-((2-methyl-6-(1-methyl-5-(((((1-propylcyclopropyl)methoxy)carbonyl)amino)methyl)-1H-1,2,3-triazol-4-yl)pyridin-3-yl)oxy)cyclohexane-1-carboxylic acid] | 12 nM
Cc1ccc(OC(=O)NCc2c(-c3ccc(O[C@H]4CCC[C@H](C(=O)O)C4)c(C)n3)nnn2C)cc1 [Example 62, (1S,3S)-3-((2-methyl-6-(1-methyl-5-((((p-tolyloxy)carbonyl)amino)methyl)-1H-1,2,3-triazol-4-yl)pyridin-3-yl)oxy)cyclohexane-1-carboxylic acid] | 148 nM
COc1ccc(OC(=O)NCc2c(-c3ccc(O[C@H]4CCC[C@H](C(=O)O)C4)c(C)n3)nnn2C)cc1 [Example 63, (1S,3S)-3-((6-(5-((((4-methoxyphenoxy)carbonyl)amino)methyl)-1-methyl-1H-1,2,3-triazol-4-yl)-2-methylpyridin-3-yl)oxy)cyclo-hexane-1-carboxylic acid] | 792 nM
Cc1nc(-c2nnn(C)c2NC(=O)OC(C)(C)C)ccc1O[C@H]1CCC[C@H](C(=O)O)C1 [Example 64, (1S,3S)-3-((6-(5-((tert-butoxycarbonyl)amino)-1-methyl-1H-1,2,3-triazol-4-yl)-2-methylpyridin-3-yl)oxy)cyclohexane-1-carboxylicacid] | 54 nM
Cc1nc(-c2nnn(C)c2NC(=O)OCCC(C)(C)C)ccc1O[C@H]1CCC[C@H](C(=O)O)C1 [Example 65, (1S,3S)-3-((6-(5-(((3,3-dimethyl-butoxy)carbonyl)amino)-1-methyl-1H-1,2,3-triazol-4-yl)-2-methyl-pyridin-3-yl)oxy)cyclohexane-1-carboxylic acid] | 75 nM
Cc1nc(-c2nnn(C)c2NC(=O)OC2CCCC2)ccc1O[C@H]1CCC[C@H](C(=O)O)C1 [Example 66, (1S,3S)-3-((6-(5-(((cyclopentyloxy)carbonyl)amino)-1-methyl-1H-1,2,3-triazol-4-yl)-2-methylpyridin-3-yl)oxy)cyclohexane-1-carboxylic acid] | 68 nM
Cc1nc(-c2nnn(C)c2NC(=O)OCC(C)(C)C)ccc1O[C@H]1CCC[C@H](C(=O)O)C1 [Example 67, (1S,3S)-3-((2-methyl-6-(1-methyl-5-(((neopentyloxy)carbonyl)amino)-1H-1,2,3-triazol-4-yl)pyridin-3-yl)oxy)cyclohexane-1-carboxylic acid] | 72 nM
CCCOC(=O)Nc1c(-c2ccc(O[C@H]3CCC[C@H](C(=O)O)C3)c(C)n2)nnn1C [Example 68, (1S,3S)-3-((2-methyl-6-(1-methyl-5-((propoxycarbonyl)amino)-1H-1,2,3-triazol-4-yl)pyridin-3-yl)oxy)cyclohexane-1-carboxylic acid] | 89 nM

Reference: patent publication US11697646B2, “Triazole N-linked carbamoyl cyclohexyl acids as LPA antagonists” (BRISTOL-MYERS SQUIBB COMPANY, priority 2017, dated 2023)
